In patent US20240261271A1, “APPLICATION OF HYDRONIDONE IN PREPARATION OF DRUG FOR TREATING OR PREVENTING CHRONIC HEPATITIS B WITH LIVER FIBROSIS” (priority 2021, published 2024):
Several values for one entry are separate records, joined by “and”; a condition that tells them apart may be missing. Identical values can stand only once.

System: chronic hepatitis B with hepatic fibrosis
Assay: Phase II clinical study: hepatic fibrosis Ishak score by liver biopsy, before and after 52 weeks of treatment on entecavir basic treatment
Type: in vivo, human
Conditions: for Rate difference (C-D) % and 95% CI, Ishak score decreased by ≥1: 180 mg group minus 270 mg group; for Hepatic fibrosis Ishak score, Mean (SD) / Hepatic fibrosis Ishak score, Median / Ishak score 0 point, n(%) / Ishak score 1 point, n(%) / Ishak score 2 points, n(%) / Ishak score 3 points, n(%) / Ishak score 4 points, n(%) / Ishak score 5 points, n(%) / Ishak score 6 points, n(%) / Progressive Ishak score (increases by ≥1 compared with the baseline) / Reversed Ishak score (decreases by ≥1 point compared with the baseline) / Stable Ishak score (unchanged compared with the baseline): 52 weeks of treatment
Experimental: This is a randomized, double-blind, placebo-controlled, multicenter, and dose-finding phase II clinical study with foundational treatment. In the clinical trial, three different dose test groups and a placebo control group were set on the basis of the entecavir capsule antiviral treatment, and the planned sample amount of each group was 60 cases, totaling 240 cases. The three dose test groups were 180 mg group, 270 mg group, and 360 mg group, respectively. […]

[1] = 180 mg group, FAS, 52 weeks of treatment vs baseline, all subjects
[2] = 180 mg group, FAS, all subjects
[3] = 180 mg group, FAS, baseline Ishak score ≥3
[4] = 180 mg group, FAS, screening period-follow-up 15 (52 weeks), baseline Ishak score ≥3
[5] = 180 mg group, PPS, 52 weeks of treatment vs baseline, all subjects
[6] = 180 mg group, PPS, all subjects
[7] = 180 mg group, PPS, baseline Ishak score ≥3
[8] = 180 mg group, PPS, screening period-follow-up 15 (52 weeks), baseline Ishak score ≥3
[9] = 270 mg group, FAS, 52 weeks of treatment vs baseline, all subjects
[10] = 270 mg group, FAS, all subjects
[11] = 270 mg group, FAS, baseline Ishak score ≥3
[12] = 270 mg group, FAS, screening period-follow-up 15 (52 weeks), baseline Ishak score ≥3
[13] = 270 mg group, PPS, 52 weeks of treatment vs baseline, all subjects
[14] = 270 mg group, PPS, all subjects
[15] = 270 mg group, PPS, baseline Ishak score ≥3

For `Cc1ccc(=O)n(-c2ccc(O)cc2)c1` [hydronidone], the “Rate difference (C-D) % and 95% CI, Ishak score decreased by ≥1” value (FAS, 52 weeks, all subjects) was −15.62(−35.03, 5.65) %, the “Rate difference (C-D) % and 95% CI, Ishak score decreased by ≥1” value (FAS, 52 weeks, baseline Ishak score ≥3) was −10.12(−34.40, 15.62) % and the “Rate difference (C-D) % and 95% CI, Ishak score decreased by ≥1” value (PPS, 52 weeks, all subjects) was −18.49(−38.82, 4.38) %. For the same compound, the “Rate difference (C-D) % and 95% CI, Ishak score decreased by ≥1” value (PPS, 52 weeks, baseline Ishak score ≥3) was −12.91(−37.46, 13.45) %, the “Ishak score decreased by <1, n(%)” value [1] was 25(59.52) n(%) and the “Ishak score decreased by ≥1, n(%)” value [1] was 17 (40.48%) n(%) and 17(40.48) n(%). The “Hepatic fibrosis Ishak score, Mean (SD)” value [2] was 2.71(1.88), the “Hepatic fibrosis Ishak score, Median” value [2] was 2.00 and the “Ishak score 0 point, n(%)” value [2] was 3(7.14) n(%). The “Ishak score 1 point, n(%)” value [2] was 12(28.57) n(%), the “Ishak score 2 points, n(%)” value [2] was 8(19.05) n(%) and the “Ishak score 3 points, n(%)” value [2] was 4(9.52) n(%). For the same compound, the “Ishak score 4 points, n(%)” value [2] was 5(11.90) n(%), the “Ishak score 5 points, n(%)” value [2] was 6(14.29) n(%) and the “Ishak score 6 points, n(%)” value [2] was 4(9.52) n(%). The “Progressive Ishak score (increases by ≥1 compared with the baseline)” value [2] was 7 (16.67%) n(%) and 7(16.67) n(%), the “Reversed Ishak score (decreases by ≥1 point compared with the baseline)” value [2] was 17(40.48) n(%) and the “Stable Ishak score (unchanged compared with the baseline)” value [2] was 18 (42.86%) n(%) and 18(42.86) n(%). For the same compound, the “Ishak score 0 point, n(%)” value [3] was 1(4.17) n(%), the “Ishak score 1 point, n(%)” value [3] was 4(16.67) n(%) and the “Ishak score 2 points, n(%)” value [3] was 1(4.17) n(%). For the same compound, the “Ishak score 3 points, n(%)” value [3] was 3(12.50) n(%), the “Ishak score 4 points, n(%)” value [3] was 5(20.83) n(%) and the “Ishak score 5 points, n(%)” value [3] was 6(25.00) n(%). The “Ishak score 6 points, n(%)” value [3] was 4(16.67) n(%), the “Ishak score change, Baseline-52 weeks of treatment, Mean (SD)” value (from here on “Ishak score change … (SD)”) [2] was 0.43(1.25) and the “Ishak score change, Baseline-52 weeks of treatment, Median” value (from here on “Ishak score change … Median”) [2] was 0.00. For the same compound, the “Ishak score decreased by <1, n(%)” value [4] was 11(45.83) n(%), the “Ishak score decreased by ≥1, n(%)” value [4] was 13(54.17) n(%) and the “Ishak score decreased by <1, n(%)” value [5] was 19(52.78) n(%). The “Ishak score decreased by ≥1, n(%)” value [5] was 17 (47.22%) n(%) and 17(47.22) n(%), the “Hepatic fibrosis Ishak score, Mean (SD)” value [6] was 2.67(1.88) and the “Hepatic fibrosis Ishak score, Median” value [6] was 2.00. For the same compound, the “Ishak score 0 point, n(%)” value [6] was 3(8.33) n(%), the “Ishak score 1 point, n(%)” value [6] was 11(30.56) n(%) and the “Ishak score 2 points, n(%)” value [6] was 5(13.89) n(%). For the same compound, the “Ishak score 3 points, n(%)” value [6] was 4(11.11) n(%), the “Ishak score 4 points, n(%)” value [6] was 5(13.89) n(%) and the “Ishak score 5 points, n(%)” value [6] was 5(13.89) n(%). The “Ishak score 6 points, n(%)” value [6] was 3(8.33) n(%), the “Progressive Ishak score (increases by ≥1 compared with the baseline)” value [6] was 7 (19.44%) n(%) and 7(19.44) n(%) and the “Reversed Ishak score (decreases by ≥1 point compared with the baseline)” value [6] was 17(47.22) n(%). The “Stable Ishak score (unchanged compared with the baseline)” value [6] was 12 (33.33%) n(%) and 12(33.33) n(%), the “Ishak score 0 point, n(%)” value [7] was 1(4.55) n(%) and the “Ishak score 1 point, n(%)” value [7] was 4(18.18) n(%). The “Ishak score 2 points, n(%)” value [7] was 1(4.55) n(%), the “Ishak score 3 points, n(%)” value [7] was 3(13.64) n(%) and the “Ishak score 4 points, n(%)” value [7] was 5(22.73) n(%). For the same compound, the “Ishak score 5 points, n(%)” value [7] was 5(22.73) n(%), the “Ishak score 6 points, n(%)” value [7] was 3(13.64) n(%) and the “Ishak score change … (SD)” value [6] was 0.50(1.34). For the same compound, the “Ishak score change … Median” value [6] was 0.00, the “Ishak score decreased by <1, n(%)” value [8] was 9(40.91) n(%) and the “Ishak score decreased by ≥1, n(%)” value [8] was 13(59.09) n(%). The “Ishak score decreased by ≥1, n(%)” value (270 mg group + 360 mg group, FAS, 52 weeks, baseline Ishak score = 6 (cirrhosis)) was 9(90.00) n(%), the “Ishak score decreased by ≥1, n(%)” value (270 mg group + 360 mg group, FAS, 52 weeks, baseline Ishak score ≥3 (significant fibrosis)) was 35(61.40) n(%) and the “Ishak score decreased by ≥1, n(%)” value (270 mg group + 360 mg group, FAS, 52 weeks, baseline Ishak score ≥4 (progressive fibrosis)) was 22(64.71) n(%). The “Ishak score decreased by ≥1, n(%)” value (270 mg group + 360 mg group, FAS, 52 weeks, baseline Ishak score ≥5 (early cirrhosis)) was 17(65.38) n(%), the “Ishak score decreased by ≥1, n(%)” value (270 mg group + 360 mg group, PPS, 52 weeks, baseline Ishak score = 6 (cirrhosis)) was 9(90.00) n(%) and the “Ishak score decreased by ≥1, n(%)” value (270 mg group + 360 mg group, PPS, 52 weeks, baseline Ishak score ≥3 (significant fibrosis)) was 35(70.00) n(%). The “Ishak score decreased by ≥1, n(%)” value (270 mg group + 360 mg group, PPS, 52 weeks, baseline Ishak score ≥4 (progressive fibrosis)) was 22(70.97) n(%), the “Ishak score decreased by ≥1, n(%)” value (270 mg group + 360 mg group, PPS, 52 weeks, baseline Ishak score ≥5 (early cirrhosis)) was 17(70.83) n(%) and the “Ishak score decreased by <1, n(%)” value [9] was 18(43.90) n(%). The “Ishak score decreased by ≥1, n(%)” value [9] was 23 (56.10%) n(%) and 23(56.10) n(%), the “Hepatic fibrosis Ishak score, Mean (SD)” value [10] was 2.64(1.74) and the “Hepatic fibrosis Ishak score, Median” value [10] was 2.00. For the same compound, the “Ishak score 0 point, n(%)” value [10] was 2(5.13) n(%), the “Ishak score 1 point, n(%)” value [10] was 12(30.77) n(%) and the “Ishak score 2 points, n(%)” value [10] was 7(17.95) n(%). The “Ishak score 3 points, n(%)” value [10] was 5(12.82) n(%), the “Ishak score 4 points, n(%)” value [10] was 5(12.82) n(%) and the “Ishak score 5 points, n(%)” value [10] was 6(15.38) n(%). The “Ishak score 6 points, n(%)” value [10] was 2(5.13) n(%), the “Progressive Ishak score (increases by ≥1 compared with the baseline)” value [10] was 4 (9.76%) n(%) and 4(9.76) n(%) and the “Reversed Ishak score (decreases by ≥1 point compared with the baseline)” value [10] was 23(56.10) n(%). The “Stable Ishak score (unchanged compared with the baseline)” value [10] was 14 (34.15%) n(%) and 14(34.15) n(%), the “Ishak score 0 point, n(%)” value [11] was 2(7.14) n(%) and the “Ishak score 1 point, n(%)” value [11] was 4(14.29) n(%). The “Ishak score 2 points, n(%)” value [11] was 4(14.29) n(%), the “Ishak score 3 points, n(%)” value [11] was 5(17.86) n(%) and the “Ishak score 4 points, n(%)” value [11] was 5(17.86) n(%). The “Ishak score 5 points, n(%)” value [11] was 6(21.43) n(%), the “Ishak score 6 points, n(%)” value [11] was 2(7.14) n(%) and the “Ishak score change … (SD)” value [10] was 0.78(1.11). For the same compound, the “Ishak score change … Median” value [10] was 1.00, the “Ishak score decreased by <1, n(%)” value [12] was 10(35.71) n(%) and the “Ishak score decreased by ≥1, n(%)” value [12] was 18(64.29) n(%). The “Ishak score decreased by <1, n(%)” value [13] was 12(34.29) n(%), the “Ishak score decreased by ≥1, n(%)” value [13] was 23 (65.71%) n(%) and 23(65.71) n(%) and the “Hepatic fibrosis Ishak score, Mean (SD)” value [14] was 2.60(1.77). The “Hepatic fibrosis Ishak score, Median” value [14] was 2.00, the “Ishak score 0 point, n(%)” value [14] was 2(5.71) n(%) and the “Ishak score 1 point, n(%)” value [14] was 11(31.43) n(%). For the same compound, the “Ishak score 2 points, n(%)” value [14] was 7(20.00) n(%), the “Ishak score 3 points, n(%)” value [14] was 3(8.57) n(%) and the “Ishak score 4 points, n(%)” value [14] was 5(14.29) n(%). For the same compound, the “Ishak score 5 points, n(%)” value [14] was 5(14.29) n(%), the “Ishak score 6 points, n(%)” value [14] was 2(5.71) n(%) and the “Progressive Ishak score (increases by ≥1 compared with the baseline)” value [14] was 4 (11.43%) n(%) and 4(11.43) n(%). The “Reversed Ishak score (decreases by ≥1 point compared with the baseline)” value [14] was 23(65.71) n(%), the “Stable Ishak score (unchanged compared with the baseline)” value [14] was 8 (22.86%) n(%) and 8(22.86) n(%) and the “Ishak score 0 point, n(%)” value [15] was 2(8.00) n(%). For the same compound, the “Ishak score 1 point, n(%)” value [15] was 4(16.00) n(%), the “Ishak score 2 points, n(%)” value [15] was 4(16.00) n(%) and the “Ishak score 3 points, n(%)” value [15] was 3(12.00) n(%).
